{"source": "patent US9687571B2", "about": "“Stabilization of radiopharmaceutical compositions using ascorbic acid” (Lantheus Medical Imaging, Inc., priority 2009, dated 2017)", "key": {"[1]": {"assay": "Acid/base and solution properties of ascorbic acid", "type": "physicochemical", "conditions": "aqueous dose solution, pH 5.8"}, "[2]": {"assay": "Effect of ascorbic acid concentration on radiochemical purity (Example 4)", "type": "physicochemical", "conditions": "pH 5.8, FIG. 3", "experimental": "The integrity of a radiopharmaceutical is measured by the radiochemical purity (RCP) of the radiolabeled compound using ITLC or more preferably HPLC. The advantage of using HPLC is that radio-impurities caused by radiolytic degradation can be separated from the radiopharmaceutical under certain chromatographic conditions. […] The radiopharmaceutical compositions of this invention are effective in maintaining the stability of samples for up to ten hours.\nThis example describes the effect of ascorbic acid concentration on radiochemical purity. In this example, the radiochemical purity (RCP) of the ^18F-labeled drug product (2-tert-butyl-4-chloro-5-[4-(2-[^18F]fluoro-ethoxymethyl)-benzyloxy]-2H-pyridazin-3-one) was monitored for solutions having an ascorbic acid concentration range from 200 mg/mL (saturation level) to 20 mg/mL, at pH 5.8."}}, "data": [{"smiles": "O=C1O[C@H]([C@@H](O)CO)C(O)=C1O", "note": "[Ascorbic acid]", "values": [{"measurement": "saturation level (concentration)", "setting": "[1]", "value": 200, "unit": "mg/mL"}]}, {"smiles": "CC(C)(C)n1ncc(OCc2ccc(COCC[18F])cc2)c(Cl)c1=O", "note": "[2-tert-butyl-4-chloro-5-[4-(2-[^18F]fluoro-ethoxymethyl)-benzyloxy]-2H-pyridazin-3-one]", "values": [{"measurement": "radiochemical purity (RCP) level", "setting": "[2]; ascorbic acid 20 mg/mL", "value": "increase in impurities (i.e., lower RCP level)"}, {"measurement": "radiochemical purity (RCP) level", "setting": "[2]; ascorbic acid 200 to 50 mg/mL", "value": "do not significantly change"}]}]}
